Data set [1] in a line: Mouse pharmacokinetic study. In kind it is in vivo. The conditions noted are these: Balb/c mouse; for clearance / Vd: iv; for Vd: read-out: Vss; for bioavailability: read-out: Oral BA (F %).
A further data set concerns the target PARP7 enzyme (Homo sapiens (Human), UniProt Q7Z3E1). The data set can be described thus: PARP7 enzymatic experiment (HTRF assay). The conditions noted are these: 4PL fit. In kind it is biochemical. A general note: In TR-FRET formats the signal depends on donor and acceptor labels being close together.
The subject of data set [2] is lung cancer cell line H1373 (high expression of PARP7). The data set can be described thus: Lung cancer cell proliferation inhibition experiment (CTG method). In kind it is cell-based. The conditions noted are these: H1373 cells, 144 hrs incubation, Cell Titer Glo.
Setting [3] is: plasma, po, 100 mg/kg p.o. vs 3 mg/kg i.v.
[4] abbreviates: plasma, po, single 100 mg/kg, p.o., read-out: Cmax.
Where [5] appears, read: plasma, oral, 100 mg/kg p.o. vs 3 mg/kg i.v.

One may read the IC50 as the concentration that inhibits the measured activity by half. Broadly, the Vss is the apparent volume that relates the amount in the body to the concentration in plasma or blood. Usually Cmax stands for the maximum level reached in the sampled fluid or tissue. In general, clearance refers to the rate of elimination divided by the concentration. High values mean a high capacity for elimination, low ones a low capacity for elimination. A word on the AUC(0-t): it is exposure summed from dosing to a finite time, without extrapolation to infinity. A high value points to high exposure.

Read-outs that look alike come from different tables or passages of the source.

Chain of PARP7 enzyme (Q7Z3E1 456-657): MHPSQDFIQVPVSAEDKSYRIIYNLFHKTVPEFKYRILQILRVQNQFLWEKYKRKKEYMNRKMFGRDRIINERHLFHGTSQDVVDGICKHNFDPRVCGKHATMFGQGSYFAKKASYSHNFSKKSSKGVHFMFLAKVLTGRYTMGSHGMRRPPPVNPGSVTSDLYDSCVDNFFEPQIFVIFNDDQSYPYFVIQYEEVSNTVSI

On to `C[C@@H](COCCC(=O)N1CCN2c3ncc(Cl)cc3N(C)C(=O)[C@@H]2C1)Nc1cn[nH]c(=O)c1C(F)(F)F` (single isomer, unassigned) [Compound 20A], for which the “pharmacokinetic properties (in words)” value in data set [1] is listed as “good pharmacokinetic properties”. The IC50 against PARP7 enzyme worked out at 0.00151 µM; in data set [2] (Homo sapiens, NCI-H1373, 144 h), 0.0539 µM.

In the case of `CC(C)N1C(=O)[C@@H]2CN(C(=O)CCOC[C@H](C)Nc3cn[nH]c(=O)c3C(F)(F)F)CCN2c2ncc(C(F)(F)F)cc21` (single isomer, unassigned) [Compound 24A], the “pharmacokinetic properties (in words)” value in data set [1] is reported as “good pharmacokinetic properties”. This compound also gave a half-maximal inhibitory concentration (IC50) on PARP7 enzyme of 0.00207 µM.

For `C[C@@H](COCCC(=O)N1CCN2c3ncc(C(F)(F)F)cc3SCC[C@@H]2C1)Nc1cn[nH]c(=O)c1C(F)(F)F` (single isomer, unassigned) [Compound 71A], the “pharmacokinetic properties (in words)” value in data set [1] is reported as “good pharmacokinetic properties”. Besides, the IC50 against PARP7 enzyme worked out at 0.00153 µM; in data set [2] it was 0.0139 µM.

Consider `CCN1c2ncc(Cl)cc2OCC[C@@H]1CNC(=O)CCOC[C@@H](C)Oc1cn[nH]c(=O)c1C(F)(F)F` (single isomer, unassigned) [Compound 84A], for which, in data set [1] (100 mg/kg p.o. vs 3 mg/kg i.v.), the “Oral BA (F %)” value is 106%. In data set [1] (single 3 mg/kg, i.v.), this compound registered a CL of 41 mL/min/kg and a Vss of 0.5 L/kg. Further, in data set [1] (single 100 mg/kg, p.o.), the AUClast amounted to 43382 ng·h/mL and the Cmax was determined as 15033 ng/mL. Besides, it took 0.00101 µM to reach half-maximal inhibition at PARP7 enzyme (IC50). The compound also registered an IC50 in data set [2] of 0.0215 µM.

The compound `Cc1c(Cl)cnc2c1OCC[C@@H]1CN(C(=O)CCOC[C@H](C)Oc3cn[nH]c(=O)c3C(F)(F)F)CCN21` (single isomer, unassigned) [Compound 85A] had a clearance in data set [1] (plasma, single 3 mg/kg) of 60 mL/min/kg. The Vd in data set [1] (plasma, single 3 mg/kg, i.v.) was 0.5 L/kg. Further, in data set [1] (setting [3]), the bioavailability was 301%. The compound further came in with an AUC(0-t) in data set [1] (plasma, po, single 100 mg/kg) of 86100 ng·h/mL. The Cmax in data set [1] (setting [4]) came to 24200 ng/mL. This compound gave an IC50 in data set [2] (Homo sapiens, NCI-H1373, 144 h) of 0.0207 µM.

Take `C[C@@H](COCCC(=O)N1CCN2c3nc(F)c(Cl)cc3N(C)C(=O)[C@@H]2C1)Nc1cn[nH]c(=O)c1C(F)(F)F` [Compound 14A]: the “pharmacokinetic properties (in words)” value in data set [1] is given as “good pharmacokinetic properties”. Further, at PARP7 enzyme, 0.0106 µM corresponded to half-maximal inhibition (IC50).

As for `Cc1c2n(c3ncc(C(F)(F)F)cc13)CCN(C(=O)CCOC[C@H](C)Oc1cn[nH]c(=O)c1C(F)(F)F)C2` [Compound 45], in data set [1], the “pharmacokinetic properties (in words)” value is “good pharmacokinetic properties”. In addition, the IC50 in data set [2] (Homo sapiens, NCI-H1373, 144 h) turned out to be 0.013 µM.

The compound `C[C@@H](COCCC(=O)N1CCn2c(cc3cc(C(F)(F)F)cnc32)C1)Oc1cn[nH]c(=O)c1C(F)(F)F` [Compound 47A] had a clearance in data set [1] (plasma, single 3 mg/kg) of 16 mL/min/kg. Further, the Vd in data set [1] (plasma, single 3 mg/kg, i.v.) was 0.5 L/kg. Moreover, the bioavailability in data set [1] (setting [5]) turned out to be 90%. For the same compound, the AUC(0-t) in data set [1] (plasma, po, single 100 mg/kg) was 95200 ng·h/mL. Also, the Cmax in data set [1] (setting [4]) worked out at 41100 ng/mL. The compound further yielded an IC50 in data set [2] (Homo sapiens, NCI-H1373, 144 h) of 0.0609 µM.

In data set [1] (plasma, single 3 mg/kg), `C[C@@H](COCCC(=O)N1CCN2c3ncc(C(F)(F)F)cc3OC[C@@H]2C1)Oc1cn[nH]c(=O)c1C(F)(F)F` [Compound 51] gave a clearance of 22 mL/min/kg. In data set [1] (plasma, single 3 mg/kg, i.v.), the Vd was found to be 0.5 L/kg. Besides, in data set [1] (setting [5]), the bioavailability was 121%. Further, in data set [1] (plasma, po, single 100 mg/kg), the AUC(0-t) is 91400 ng·h/mL. Further, the Cmax in data set [1] (setting [4]) was determined as 38200 ng/mL. Besides, the IC50 in data set [2] (Homo sapiens, NCI-H1373) was 0.0346 µM.

Turning to `C[C@@H](COCCC(=O)N1CCN2c3ncc(C(F)(F)F)cc3[C@](C)(O)[C@H]2C1)Nc1cn[nH]c(=O)c1C(F)(F)F` [Compound 79D], the IC50 stood at 0.00318 µM on PARP7 enzyme and 0.742 µM in data set [2] (Homo sapiens, NCI-H1373, 144 h).

`C[C@@H](COCCC(=O)N1CCN2c3ncc(C(F)(F)F)cc3C(O)CC2C1)Nc1cn[nH]c(=O)c1C(F)(F)F` (stereo partly shown) [Compound 80]: the IC50 at PARP7 enzyme was 0.000946 µM; in data set [2] it was 0.151 µM.

As for `C[C@H](COCCC(=O)N1CCN2c3ncc(Cl)cc3N(C)C(=O)[C@@H]2C1)Nc1cn[nH]c(=O)c1C(F)(F)F` [Compound 82A], the clearance in data set [1] (plasma, single 3 mg/kg) came out at 32 mL/min/kg. Moreover, the Vd in data set [1] (plasma, single 3 mg/kg, i.v.) worked out at 0.4 L/kg. The bioavailability in data set [1] (setting [3]) was determined as 48%. The area under the curve AUC(0-t) in data set [1] (plasma, po, single 100 mg/kg) is 26400 ng·h/mL. In addition, in data set [1] (setting [4]), the Cmax stood at 21700 ng/mL. The IC50 came to 0.000744 µM against PARP7 enzyme and 0.0475 µM in data set [2] (Homo sapiens, NCI-H1373, 144 h).

With `C[C@H](COCCC(=O)N1CCN2c3ncc(Cl)cc3N(C)C(=O)[C@H]2C1)Nc1cn[nH]c(=O)c1C(F)(F)F` [Compound 82B], the concentration for half-maximal inhibition (IC50) against PARP7 enzyme was determined as 0.000892 µM; in data set [2] (Homo sapiens, NCI-H1373, 144 h), 0.0216 µM.

Regarding `Cc1c(Cl)cnc2c1OCC[C@H]1CN(C(=O)CCOC[C@H](C)Oc3cn[nH]c(=O)c3C(F)(F)F)CCN21` [Compound 85B], the IC50 on PARP7 enzyme is 0.00784 µM; in data set [2] (Homo sapiens, NCI-H1373, 144 h), 0.311 µM.

In data set [1] (plasma, single 3 mg/kg), `C[C@@H](COCCC(=O)N1CCN2c3ncc(C(F)(F)F)cc3SCC[C@@H]2C1)Oc1cn[nH]c(=O)c1C(F)(F)F` [Compound 86A] yielded a clearance of 54 mL/min/kg. The Vd in data set [1] (plasma, single 3 mg/kg, i.v.) is 1.4 L/kg. For the same compound, the bioavailability in data set [1] (setting [3]) stood at 66%. The AUC(0-t) in data set [1] (plasma, po, single 100 mg/kg) stood at 20300 ng·h/mL. Besides, the Cmax in data set [1] (setting [4]) stood at 7860 ng/mL. Further, the half-maximal inhibitory concentration (IC50) on PARP7 enzyme came out at 0.0025 µM; in data set [2] (Homo sapiens, NCI-H1373, 144 h) it was 0.0119 µM.

On to `C[C@@H](COCCC(=O)N1CCN2c3ncc(C(F)(F)F)cc3SCC[C@H]2C1)Oc1cn[nH]c(=O)c1C(F)(F)F` [Compound 86B], for which the IC50 was found to be 0.0205 µM on PARP7 enzyme and 0.246 µM in data set [2] (Homo sapiens, NCI-H1373, 144 h).

In the case of `CN1C(=O)[C@@H]2CN(C(=O)CCOC[C@@H]3CCN3c3cn[nH]c(=O)c3C(F)(F)F)CCN2c2ncc(Cl)cc21` [Compound 88A], the IC50 was 0.000416 µM against PARP7 enzyme and 0.00217 µM in data set [2] (Homo sapiens, NCI-H1373, 144 h).

Turning to `CN1C(=O)[C@H]2CN(C(=O)CCOC[C@@H]3CCN3c3cn[nH]c(=O)c3C(F)(F)F)CCN2c2ncc(Cl)cc21` [Compound 88B], the IC50 against PARP7 enzyme came out at 0.000446 µM; in data set [2] (Homo sapiens, NCI-H1373, 144 h) it was 0.00294 µM.

For `O=C(CCOC[C@@H]1CCN1c1cn[nH]c(=O)c1C(F)(F)F)N1CCN2c3ncc(C(F)(F)F)cc3OC[C@@H]2C1` [Compound 89A], the IC50 against PARP7 enzyme was 0.000696 µM; in data set [2] (Homo sapiens, NCI-H1373, 144 h), 0.0106 µM.

As to `O=C(CCOC[C@@H]1CCN1c1cn[nH]c(=O)c1C(F)(F)F)N1CCN2c3ncc(C(F)(F)F)cc3OC[C@H]2C1` [Compound 89B], the half-inhibitory concentration (IC50) was determined as 0.000658 µM against PARP7 enzyme and 0.00692 µM in data set [2] (Homo sapiens, NCI-H1373, 144 h).

Turning to `O=C(CCOC[C@@H]1CCN1c1cn[nH]c(=O)c1C(F)(F)F)N1CCn2c(cc3cc(C(F)(F)F)cnc32)C1` [Compound 91], the IC50 at PARP7 enzyme was 0.000496 µM; in data set [2] (Homo sapiens, NCI-H1373, 144 h) it was 0.0113 µM.

For the compound `Cc1c2n(c3ncc(C(F)(F)F)cc13)CCN(C(=O)CCOC[C@@H]1CCN1c1cn[nH]c(=O)c1C(F)(F)F)C2` [Compound 92], the IC50 was 0.000686 µM against PARP7 enzyme and 0.00802 µM in data set [2] (Homo sapiens, NCI-H1373, 144 h).

Regarding `O=C(CCOC[C@@H]1CCN1c1cn[nH]c(=O)c1C(F)(F)F)N1CCN2c3ncc(C(F)(F)F)cc3C(F)(F)C[C@@H]2C1` [Compound 93A], the IC50 on PARP7 enzyme worked out at 0.00282 µM; in data set [2] (Homo sapiens, NCI-H1373, 144 h), 0.0156 µM.

With `O=C(CCOC[C@@H]1CCN1c1cn[nH]c(=O)c1C(F)(F)F)N1CCN2c3ncc(C(F)(F)F)cc3C(F)(F)C[C@H]2C1` [Compound 93B], the IC50 against PARP7 enzyme was found to be 0.00209 µM; in data set [2] (Homo sapiens, NCI-H1373, 144 h) it was 0.0104 µM.

Regarding `CC(OCCC(=O)N1CCN2c3ncc(C(F)(F)F)cc3N(C)C(=O)C2C1)[C@@H]1CCN1c1cn[nH]c(=O)c1C(F)(F)F` (stereo partly shown) [Compound 96], the values for the IC50 (against PARP7 enzyme; in data set [2]) were 0.00327 µM and 0.0221 µM, respectively.
